Patent US10329542B2, “HBV RNAse H purification and enzyme inhibitors” (Saint Louis University, priority 2012, dated 2019)

How the values were obtained:
[1] = target: HCV RNA-directed RNA polymerase (Hepatitis C virus genotype 1a, UniProt P27958); assay: Primed homopolymeric RNA (poly-G) synthesis assay; format: biochemical; settings: 10 μM
Experimental: FIGS. 9A-C. Specificity of anti-HBV RNAseH compounds. (FIG. 9A) Inhibition of HBV genotype D RNAseH by irrelevant compounds at 10 μM in the oligonucleotide-directed RNAseH assay. Compound #4 was employed as an example HBV RNAseH inhibitor. […] The ability of compounds #5, 6 and 8 to inhibit production of poly-G by the HCV RNA-directed RNA polymerase was measured in a primed homopolymeric RNA synthesis assay (Cao, et al., 2011. The compounds were employed at 10 μM. DMSO, vehicle control. (FIG. 9C) Dose-responsiveness of HBV RNAseH inhibition. The effects of compounds #6, 8, and 12 on the RNAseH activity of HRHPL (genotype D) were measured at concentrations ranging from 0.5 to 50 μM. The dose-response profile is plotted for compound #12.

[2] = system: HBV genotype A; settings: 10 μM; Tavis et al., 2013; cited from earlier work
[3] = system: HBV genotype D; assay: HBV replication inhibition in Huh7 cells, Southern blot, genotype D; format: cell-based, Hepatitis B virus; settings: 10 μM
Experimental: Huh7 cells were maintained in Dulbecco's modified Eagle's medium with 10% fetal bovine serum at 37° C. in 5% CO2. Cells were seeded into 60 mm dishes and transfected at 70% confluency with 2.6 μg of plasmids using TransIT-LT1 (Mirus, Inc.). Test compounds were added the morning following transfection at 10 or 50 μM, and fresh medium containing the compounds was provided every 1-2 days. Four or five days post-transfection HBV cores were isolated by lysis of the cells in 10 mM Tris pH 7.5, 1 mM EDTA, 0.25% NP40, 50 mM NaCl, and 8% sucrose followed by sedimentation through a 30% sucrose cushion as described (Travis, et al., 1998). […] The nucleic acid samples were resolved by electrophoresis on 1.2% agarose gels and detected by Southern blotting with ^32P-labeled HBV DNA as a probe.
Finally, the inventors asked whether HBV RNAseH inhibitors could block HBV replication in culture. […] Replicate nucleic acid aliquots were mock treated or treated with DNAse-free E. coli RNAseH to destroy RNA:DNA heteroduplexes, and then HBV DNAs were detected by Southern blotting. […]
Inhibition of HBV replication by βTJ was measured as recently described (Tavis et al., 2013). […] The nucleic acids were resolved by electrophoresis on 1.2% agarose gels and HBV DNAs were detected by Southern blotting with ^32P-labeled double-stranded HBV DNA as a probe to detect both the plus- and minus-polarity HBV DNA strands. […]

[4] = target: T1, HBV genotype D RNAseH (HRHPL) (Hepatitis B virus genotype D subtype ayw, UniProt P03156, INS679M); settings: Tavis et al., 2013; read-out: IC50 against the HBV RNAseH, previously reported; cited from earlier work
T1 construct: HRHPL contains HBV genotype D (Genbank V01460) polymerase residues 684-845; made in house; host or cells: E. coli BL21 codon+

[5] = system: HIV; settings: cited from earlier work
[6] = target: HIV-1 RNAseH (Human immunodeficiency virus type 1 group M subtype B, UniProt P04585); settings: read-out: IC50 against the HIV RNAseH; cited from earlier work
[7] = system: CEM-SS cells; settings: cited from earlier work
[8] = system: Huh7 cells; assay: CytoTox-Glo membrane integrity assay in Huh7 cells; format: cell-based, human; settings: four days
Experimental: (§1) Toxicity of βTJ in Huh7 cells was determined with 3-(4,5-dimethylthiazol-2-yl)-5-β-carboxymethoxyphenyl)-2-(4-sulfophenyl)-2H-tetrazolium (MTS) assays that measures mitochondrial dysfunction employing the Cell Titre 96 aqueous nonradioactive cell proliferation assay (Promega), and with the CytoTox-Glo assay (Promega) that reflects cellular integrity. Huh7 and HepG2 cells (1×10^4) were plated in 96-well tissue culture plates, medium containing βTJ at the indicated concentrations was added the next day, the medium was replaced with fresh medium containing βTJ after two days, and after four days the MTS or CytoTox-Glo assays were conducted according to the manufacturer's instructions.

[9] = system: HepG2 cells; assay: MTS cytotoxicity assay in HepG2 cells; format: cell-based, human; settings: four days
Experimental: as §1

Chain of HCV RNA-directed RNA polymerase (P27958 2421-3011): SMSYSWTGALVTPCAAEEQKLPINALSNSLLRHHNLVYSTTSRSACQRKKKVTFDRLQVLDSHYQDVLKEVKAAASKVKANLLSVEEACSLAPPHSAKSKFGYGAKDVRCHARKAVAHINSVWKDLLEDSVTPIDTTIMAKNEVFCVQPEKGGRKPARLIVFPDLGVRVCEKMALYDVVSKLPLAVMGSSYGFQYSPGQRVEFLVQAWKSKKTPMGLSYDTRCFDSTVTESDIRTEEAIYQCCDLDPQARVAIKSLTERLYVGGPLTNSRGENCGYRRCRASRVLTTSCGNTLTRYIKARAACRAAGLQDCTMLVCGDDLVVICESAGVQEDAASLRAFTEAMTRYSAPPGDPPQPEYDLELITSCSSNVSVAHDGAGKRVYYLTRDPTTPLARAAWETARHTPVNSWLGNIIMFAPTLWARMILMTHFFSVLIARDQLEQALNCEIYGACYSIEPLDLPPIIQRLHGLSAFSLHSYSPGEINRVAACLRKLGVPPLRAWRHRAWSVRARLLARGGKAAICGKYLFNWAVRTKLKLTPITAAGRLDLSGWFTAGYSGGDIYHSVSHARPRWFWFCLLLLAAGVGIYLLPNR
T1 sequence (P03156 680-832, added parts left off, stated change not applied): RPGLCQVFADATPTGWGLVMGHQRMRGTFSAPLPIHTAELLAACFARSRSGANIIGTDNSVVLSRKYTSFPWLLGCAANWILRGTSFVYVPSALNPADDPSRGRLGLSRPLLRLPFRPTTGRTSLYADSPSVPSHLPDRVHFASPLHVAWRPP

For `Cc1c2cc(O)c(=O)cc-2oc2cc(O)c(O)cc12` [Compound 8], the “Inhibition of poly-G production by HCV RNA polymerase” value [1] was “do not significantly inhibit”.
For `NCc1ccc(-c2ccc(Cc3cc(=O)n(O)c4ncccc34)cc2)cc1` [Compound 12, napthyridinone], the “Block of viral replication in Huh7 cells” value [2] is listed as ~93%, the “Inhibition of HBV replication, genotype D isolate” value [3] is listed as “Very few of the most slowly-migrating double-stranded nucleic acids accumulated” and the IC50 [4] is listed as 2500 nM.
For `CC(C)c1ccc(O)c(=O)c(O)c1` [Compound 46, beta-thujaplicinol], the “Activity against HIV replication in cells” value [5] is given as “inactive”, the IC50 [6] is given as 200 to 300 nM and the CC50 [7] is given as 2300 nM. For the same compound, the CC50 [8] was > 150000 nM and the CC50 [9] was 16700 ± 3700 nM.
